# Measurements published in patent US10940201B2, “Nucleic acid derivative having immunostimulatory activity” (Shionogi & Co., Ltd., priority 2015, dated 2021).
# Tested on: TRP2-specific CTL
# Experiment: CTL inducibility of TRP2 peptide vaccine with adjuvant (tetramer staining)
# Format: in vivo, C57BL/6JJcl mice
# Procedure: C57BL/6JJcl mice (6 to 8 weeks old) were purchased from CLEA Japan, Inc.
# an adjuvant of the present invention or the well-known CpG ODN
# The specific immunity was induced by vaccinating a mouse twice at 7 days intervals. Each vaccine was that 100 μg of TRP2 peptide, and 1.57 or 4.71 nmol of an adjuvant of the present invention or well-known CpG ODN, were dissolved in 1×PBS. 100 μL of the vaccine was administered subcutaneous injection on the flank of a mouse.
# 100 μL of the emulsion vaccine was administered subcutaneous injection on the flank of a mouse twice at 7 days intervals.
# On 7 days after second vaccination, the blood was collected, red blood cells was removed by BD Pharm Lyse (BD pharmingen), and the white blood cells were suspended in FACS buffer (1% fetal bovine serum, 2 mM PBS with EDTA). Anti-mouse CD16/32 monoclonal antibody (BioXcell) was added thereto, and Fc receptor blocking was carried out at 4° C. for 30 minutes. […] Then, staining was carried out with DAPI (Invitrogen) and the cells were washed twice with FACS buffer. It was resuspended in FACS buffer and analyzed by FACS verse Flow Cytometer (BD bioscience) and FAC Suite software (BD bioscience). For analysis, after DAPI negative fraction was gated, white blood cells fraction were provided using forward and side-way scattering as indicators. In the white blood cells fraction, both positive cells of Alexa 647-CD8 and PE-H-2Kb Tetramer were defined as CTLs. CTL ratio in white blood cells was used for evaluation.
# After calculation of the average CTL inducibility of each group per experiment, the ratio against average value of CTL inducibility of ssCpG ODN, ODN1826 (SEQ-1) or ODN2006 (SEQ-49) as a control was calculated.
# In the case of an adjuvant comprising ODN1826 (Average of CTL inducibility of the adjuvant group)/(Average of CTL inducibility of the ODN1826 group)=the ratio against average value In the case of an adjuvant comprising ODN2006 (Average of CTL inducibility of the adjuvant group)/(Average of CTL inducibility of the ODN2006 group)=the ratio against average value
# CTL inducibility of each adjuvant was shown when CTL inducibility of ssCpG ODN was taken as 1, so the bigger value means the higher CTL inducibility.
substance,measurement,setting,value
Amph1826 [SEQ-2],Ratio of average value of antigen-specific CTL,"Table 34, 1.57 nmol/head, ODN1826 (SEQ-1) group = 1",1.68
same,Ratio of average value of antigen-specific CTL,"Table 36, 1.57 nmol/head (Montanide 100 μL), ODN1826 (SEQ-1) group = 1",3.23
same,Ratio of average value of antigen-specific CTL,"Table 37, 1.57 nmol/head, ODN1826 (SEQ-1) group = 1",3.11
same,CTL inducibility (in words),adjuvants comprising ODN1826,higher CTL inducibility than ODN1826
ODN2006 [SEQ-49],Ratio of average value of antigen-specific CTL,"Table 38, 4.71 nmol/head, ODN2006 (SEQ-49) group = 1",1.00
same,Ratio of average value of antigen-specific CTL,"Table 39, 4.71 nmol/head, ODN2006 (SEQ-49) group = 1",1.00
same,Ratio of average value of antigen-specific CTL,"Table 40, 4.71 nmol, ODN2006 (SEQ-49) group = 1",1.00
same,Ratio of average value of antigen-specific CTL,"Table 41, 4.71 nmol, ODN2006 (SEQ-49) group = 1",1.00
same,Ratio of average value of antigen-specific CTL,"Table 42, 4.71 nmol, ODN2006 (SEQ-49) group = 1",1.00
same,Ratio of average value of antigen-specific CTL,"Table 43, 4.71 nmol, ODN2006 (SEQ-49) group = 1",1.00
same,Ratio of average value of antigen-specific CTL,"Table 44, 4.71 nmol, ODN2006 (SEQ-49) group = 1",1.00
same,Ratio of average value of antigen-specific CTL,"Table 45, 4.71 nmol, ODN2006 (SEQ-49) group = 1",1.00
same,Ratio of average value of antigen-specific CTL,"Table 46, 4.71 nmol, ODN2006 (SEQ-49) group = 1",1.00
same,Ratio of average value of antigen-specific CTL,"Table 47, 4.71 nmol, ODN2006 (SEQ-49) group = 1",1.00
same,Ratio of average value of antigen-specific CTL,"Table 48, 4.71 nmol, ODN2006 (SEQ-49) group = 1",1.00
same,Ratio of average value of antigen-specific CTL,"Table 49, 4.71 nmol, ODN2006 (SEQ-49) group = 1",1.00
same,Ratio of average value of antigen-specific CTL,"Table 50, 4.71 nmol, ODN2006 (SEQ-49) group = 1",1.00
same,Ratio of average value of antigen-specific CTL,"Table 51, 4.71 nmol, ODN2006 (SEQ-49) group = 1",1.00
same,Ratio of average value of antigen-specific CTL,"Table 52, 4.71 nmol, ODN2006 (SEQ-49) group = 1",1.00
same,Ratio of average value of antigen-specific CTL,"Table 53, 4.71 nmol, ODN2006 (SEQ-49) group = 1",1.00
same,Ratio of average value of antigen-specific CTL,"Table 54, 4.71 nmol, ODN2006 (SEQ-49) group = 1",1.00
same,Ratio of average value of antigen-specific CTL,"Table 55, 4.71 nmol, ODN2006 (SEQ-49) group = 1",1.00
same,Ratio of average value of antigen-specific CTL,"Table 57, 4.71 nmol, ODN2006 (SEQ-49) group = 1",1.00
same,Ratio of average value of antigen-specific CTL,"Table 58, 4.71 nmol, ODN2006 (SEQ-49) group = 1",1.00
same,Ratio of average value of antigen-specific CTL,"Table 59, 4.71 nmol, ODN2006 (SEQ-49) group = 1",1.00
same,Ratio of average value of antigen-specific CTL,"Table 60, 4.71 nmol, ODN2006 (SEQ-49) group = 1",1.00
same,Ratio of average value of antigen-specific CTL,"Table 61, 4.71 nmol, ODN2006 (SEQ-49) group = 1",1.00
same,Ratio of average value of antigen-specific CTL,"Table 62, 4.71 nmol, ODN2006 (SEQ-49) group = 1",1.00
same,Ratio of average value of antigen-specific CTL,"Table 63, 4.71 nmol, ODN2006 (SEQ-49) group = 1",1.00
same,Ratio of average value of antigen specific CTL,"Table 64, 4.71 nmol, ODN2006 (SEQ-49) group = 1",1.00
same,Ratio of average value of antigen-specific CTL,"Table 67, 4.71 nmol, ODN2006 (SEQ-49) group = 1",1.00
same,Ratio of average value of antigen-specific CTL,"Table 68, 4.71 nmol, ODN2006 (SEQ-49) group = 1",1.00
